Measured values published in patent publication US10196403B2, “Compounds and compositions and uses thereof” (Sunovion Pharmaceuticals Inc., priority 2016, dated 2019).
Like-named read-outs stand apart in the source and are kept apart here.

Assays:
Assay type in all cases: in vivo
[1] = tested on: mice; test: Neuropharmacological Assay (SmartCube); details: for minimal effective dose: Mus musculus, read-out: POTENCY (minimal effective dose, MED); for AD: ADHD (SmartCube probability) / AG: analgesic (SmartCube probability) / AX: anxiolytic (SmartCube probability) / CE: cognitive enhancer (SmartCube probability) / DP: anti-depressant (SmartCube probability) / MS: mood stabilizer (SmartCube probability) / PS: anti-psychotic (SmartCube probability) / SD: sedative hypnotic (SmartCube probability) / UN: uncharacterized CNS activity (SmartCube probability): mice, i.p. 15 min before test, most efficacious dose(s) of 3 doses
Procedure, shortened: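 Compounds in NMP/PEG/propylene glycol given i.p. 15 min before automated video-based behavioral testing, at 3 doses; behavioral signature compared with a reference-compound database to give probability per drug class, reported at most efficacious dose. MED = dose (mpk) giving ≥50% total activity; doses typically 0.3–30 mpk.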

[2] = tested on: Male Balb/cJ mice; test: Forced Swim test (FST); details: 30 minute pretreatment; time immobile over 6 minute trial
Protocol: Forced Swim Test Procedures
The Forced Swim test (FST) is an indicator of the antidepressant-like activity of a test compound. Male Balb/cJ mice (26-31 g) were given a 30 minute pretreatment with vehicle (sterile water), sertraline control or test compound. The FST consists of one 6 minute session of forced swimming in individual opaque cylinders containing water at a temperature of 23±2° C. The mouse will swim before “giving up” and becoming immobile, the time spent immobile was recorded over the 6 minute trial. A compound with antidepressant-like activity will decrease the time the mouse is immobile over the 6 minute trial. Data were analyzed by analysis of variance (ANOVA) followed by post-hoc comparisons with Fisher Tests when appropriate.

[3] = tested on: Male C57Bl/6J mice; test: Phencyclidine (PCP)-induced hyperlocomotion; details: PCP 2.5 mg/kg s.c.; distance traveled
Protocol: Phencyclidine (PCP)-Induced Hyperlocomotion
The PCP-induced hyperlocomotion assay is an indicator of antipsychotic-like activity. Male C57Bl/6J mice (20-26 g) were administered vehicle or test compound and placed in holding cages for 30 minutes, after which they were placed in the locomotor activity chambers for 30 minutes of baseline capture. The test chambers are Plexiglas rectangular chambers (24×45 cm) that fit inside two steel frames (9.5×18 inches) and are fitted with two-dimensional 4×8 beam grids to monitor horizontal and vertical locomotor activity. Total distance traveled was measured from horizontal beam breaks as the animal traveled. Following the 30 minute baseline period, all […] were injected with saline or PCP (2.5 mg/kg, s.c.) and returned to the locomotor activity chambers for a 60 minute test session. A compound with antipsychotic-like activity will decrease the distance traveled following administration of PCP. Data were analyzed by analysis of variance (ANOVA) followed by post-hoc comparisons with Fisher Tests when appropriate.

[4] = tested on: Male C57Bl/6J mice; test: Amphetamine-induced hyperlocomotion assay; parameters: key: +++ = <1.0 mg/kg; ++ = 1-10 mg/kg; + = 10-30 mg/kg; NE = no effect; details: AMPH 4 mg/kg ip; stimulant-induced hyperactivity
Protocol: Amphetamine-Induced Hyperlocomotion Assay
Amphetamine (AMPH) is frequently used to induce or mimic a manic-like state. The antimanic-like effects of test compounds were evaluated in male C57Bl/6J mice. Mice were acclimatized to the experimental room for at least 1 hour prior to testing. The mice (n=10 per group) were administered vehicle or test compound and placed in the open field (OF) chambers for 30 minutes of baseline activity measurement. The mice were then injected with either water or AMPH (4 mg/kg, ip) and placed back in the OF chambers for a 60-minute testing session during which, the effects of test compounds on stimulant-induced hyperactivity behaviors (total distance traveled, rearing and stereotypy) were measured. Data were analyzed by analysis of variance (ANOVA) followed by post-hoc comparisons with Fisher Tests when appropriate.

[5] = tested on: Adult male AJ mice; test: Tail suspension test (TST); parameters: key: +++ = <1.0 mg/kg; ++ = 1-10 mg/kg; + = 10-30 mg/kg; NE = no effect; details: oral gavage 30 min before test; time immobile
Description: The tail suspension test (TST) is a rodent screening test for potential (human) antidepressant drugs. It is based on the assumption that an animal will actively try to escape an aversive (stressful) stimulus. If escape is impossible, the animal will eventually stop trying (“give up”). In the TST, a mouse is suspended by the tail so that its body dangles in the air, head downward. Mice initially struggle to face upward and climb to a solid surface. When the animal stops struggling and hangs immobile it is considered to have “given up”. Shorter periods of immobility are characteristic of antidepressant-like activity. Accordingly, longer periods of immobility are considered indicative of a depressive-like state. It has been shown that treatment with an antidepressant drug will decrease the time the animal spends immobile. See generally L. Stem et al., Psychopharmacology (Berl). 1985; 85(3):367-70; B. Thierry et al., Psychopharmacology 1986; 90:284-85.
Procedure. Adult male AJ mice from Jackson Laboratories received vehicle (sterile water) or test compound orally by gavage, or the positive control desipramine (20 mg/kg, i.p.), in 10 mL/kg injection volumes, 30 min before being subjected to the Tail Suspension Test. In this test, mice are placed in the Tail Suspension chambers (white polyvinylchloride cubicles measuring 33×33×31.75 cm Med Associates, Inc. St. Albans, Vt.) by a piece of transparent (Scotch®) tape attached to the tail, from about the mid-tail, with approximately 2 cm of tape past the end of the tail for 10 min during which the time spent immobile is measured. A reduction in total time immobile relative to the vehicle condition indicates an antidepressant drug-like response.

[6] = MED = dose having 50% or more total activity in SmartCube

Structure (SMILES) | minimal effective dose [1] | AD: ADHD (SmartCube probability) [1] | AG: analgesic (SmartCube probability) [1] | AX: anxiolytic (SmartCube probability) [1] | CE: cognitive enhancer (SmartCube probability) [1] | DP: anti-depressant (SmartCube probability) [1] | MS: mood stabilizer (SmartCube probability) [1] | PS: anti-psychotic (SmartCube probability) [1] | SD: sedative hypnotic (SmartCube probability) [1] | UN: uncharacterized CNS activity (SmartCube probability) [1] | FST: efficacious dose [2] | PCP: efficacious dose [3] | AMPH: efficacious dose [4] | minimal effective dose [1, 6] | TST: efficacious dose [5]
CNC[C@@H]1OCCc2ccc3c(c21)OCO3 [Example 2, (R)-1-(6,9-dihydro-7H-[1,3]dioxolo[4,5-h]isochromen-9-yl)-N-methylmethanamine] | < 3 mg/kg | + (LOQ≤ + <5%) | ++ (5%≤ ++ <25%) | ++ (5%≤ ++ <25%) | ++ (5%≤ ++ <25%) | +++ (25%≤ +++ <50%) | ++ (5%≤ ++ <25%) | ++ (5%≤ ++ <25%) | + (LOQ≤ + <5%) | +++ (25%≤ +++ <50%) | +++ (+++ = <1.0 mg/kg) | +++ (+++ = <1.0 mg/kg) | NE | – | –
CNC[C@@H]1OCCc2cccc(F)c21 [Example 26, (R)-1-(8-fluoroisochroman-1-yl)-N-methylmethanamine] | – | + (LOQ≤ + <5%) | ++ (5%≤ ++ <25%) | ++ (5%≤ ++ <25%) | ++ (5%≤ ++ <25%) | ++++ (50%≤ ++++) | + (LOQ≤ + <5%) | ++ (5%≤ ++ <25%) | ++ (5%≤ ++ <25%) | +++ (25%≤ +++ <50%) | +++ (+++ = <1.0 mg/kg) | +++ (+++ = <1.0 mg/kg) | + (+ = 10-30 mg/kg) | < 3 mg/kg | NE
CNC[C@@H]1OCCc2c(F)cccc21 [Example 14, (R)-1-(5-fluoroisochroman-1-yl)-N-methylmethanamine] | – | + (LOQ≤ + <5%) | ++ (5%≤ ++ <25%) | ++ (5%≤ ++ <25%) | ++ (5%≤ ++ <25%) | ++++ (50%≤ ++++) | ++ (5%≤ ++ <25%) | ++ (5%≤ ++ <25%) | ++ (5%≤ ++ <25%) | +++ (25%≤ +++ <50%) | – | – | + (+ = 10-30 mg/kg) | < 3 mg/kg | + (+ = 10-30 mg/kg)
CNC[C@@H]1OCCc2cc(F)ccc21 [Example 17, (R)-1-(6-fluoroisochroman-1-yl)-N-methylmethanamine] | – | + (LOQ≤ + <5%) | ++ (5%≤ ++ <25%) | ++ (5%≤ ++ <25%) | +++ (25%≤ +++ <50%) | ++ (5%≤ ++ <25%) | + (LOQ≤ + <5%) | +++ (25%≤ +++ <50%) | + (LOQ≤ + <5%) | ++ (5%≤ ++ <25%) | – | – | ++ (++ = 1-10 mg/kg) | < 3 mg/kg | NE
